Assay results: US9884832B2 (priority 2011, dated 2018)

The compounds below were run against AM2 S31 (wild-type serine at position 31 in the M2 protein), influenza virus A/Udorn/72 (Influenza A virus, UniProt P0DOF5) (assay: cell-based). Conditions: 100 uM; Xenopus oocytes; activity range class; read-out: S31 OOcyte Inhibition at 100 uM (%).
Sequence of AM2 S31 (wild-type serine at position 31 in the M2 protein), influenza virus A/Udorn/72 (P0DOF5 whole entry, looked up): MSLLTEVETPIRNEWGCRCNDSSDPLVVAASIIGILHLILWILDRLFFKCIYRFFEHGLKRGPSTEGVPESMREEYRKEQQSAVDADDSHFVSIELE
c1cn(-c2ccc(CNC34CC5CC(CC(C5)C3)C4)s2)cn1 [Example 161a, N-((5-(1H-imidazol-1-yl)thiophen-2-yl)methyl)adamantan-1-amine] showed an inhibition at 100 µM of 0 to 30%.
In the case of CC(=O)c1ccc(CNC23CC4CC(CC(C4)C2)C3)cc1 [Example 44a], the inhibition at 100 µM is reported as 0 to 30%.
CC(C)(C)c1ccc(-c2noc(CNC34CC5CC(CC(C5)C3)C4)n2)cc1 [Example 124a, N-((3-(4-(tert-butyl)phenyl)-1,2,4-oxadiazol-5-yl)methyl)adamantan-1-amine] gave an inhibition at 100 µM of 0 to 30%.
Work on c1ccn2c(CNC34CC5CC(CC(C5)C3)C4)cnc2c1 [Example 203a, Adamantan-1-yl-imidazo[1,2-a]pyridin-3-ylmethyl-amine] yielded an inhibition at 100 µM of 31 to 95%.
c1csc(-c2ccc(CNC34CC5CC(CC(C5)C3)C4)nc2)c1 [Example 55a, Adamantan-1-yl-(5-thiophen-2-yl-pyridin-2-ylmethyl)-amine] showed an inhibition at 100 µM of 31 to 95%.
c1nc(CNC23CC4CC(CC(C4)C2)C3)no1 [Example 73a, Adamantan-1-yl-[1,2,4]oxadiazol-3-ylmethyl-amine] was tested, and the inhibition at 100 µM was 31 to 95%.
Work on Cc1ccc(C(C)NC23CC4CC(CC(C4)C2)C3)s1 (stereo not shown) [Example 97a, N-(1-(5-methylthiophen-2-yl)ethyl)adamantan-1-amine] yielded an inhibition at 100 µM of 0 to 30%.
Compound Cc1ccc(CNC23CC4CC(CC(C4)C2)C3)s1 [Example 78a, N-((5-methylthiophen-2-yl)methyl)adamantan-1-amine] has an inhibition at 100 µM of 31 to 95%.
In the case of COc1ccc2cc(CNC34CC5CC(CC(C5)C3)C4)[nH]c2c1 [Example 186a, N-((6-methoxy-1H-indol-2-yl)methyl)adamantan-1-amine], the inhibition at 100 µM is reported as 0 to 30%.
With Brc1ccc(-c2cc(CNC34CC5CC(CC(C5)C3)C4)no2)cc1 [Example 121a, N-((5-(4-bromophenyl)isoxazol-3-yl)methyl)adamantan-1-amine] the inhibition at 100 µM was 0 to 30%.
COc1ccsc1CNC12CC3CC(CC(C3)C1)C2 [Example 74a, Adamantan-1-yl-(3-methoxy-thiophen-2-ylmethyl)-amine] showed an inhibition at 100 µM of 31 to 95%.
c1ccc(-c2nc(CNC34CC5CC(CC(C5)C3)C4)c[nH]2)cc1 [Example 114a, N-((2-phenyl-1H-imidazol-4-yl)methyl)adamantan-1-amine] was tested, and the inhibition at 100 µM was 31 to 95%.
FC(F)(F)c1cccc(-c2nc(CNC34CC5CC(CC(C5)C3)C4)no2)c1 [Example 125a, N-((5-(3-(trifluoromethyl)phenyl)-1,2,4-oxadiazol-3-yl)methyl)adamantan-1-amine] showed an inhibition at 100 µM of 0 to 30%.
c1cc2cc(CNC34CC5CC(CC(C5)C3)C4)ccc2s1 [Example 41a, N-(benzo[b]thiophen-5-ylmethyl)adamantan-1-amine] showed an inhibition at 100 µM of 31 to 95%.
Cc1cc(CNC23CC4CC(CC(C4)C2)C3)sc1Br [Example 77a, N-((5-bromo-4-methylthiophen-2-yl)methyl)adamantan-1-amine] showed an inhibition at 100 µM of 31 to 95%.
OC12CC3CC(C1)CC(NCc1cc(-c4ccccc4)on1)(C3)C2 [Example 194a, (1s,3r,5R,7S)-3-(((5-phenylisoxazol-3-yl)methyl)amino)adamantan-1-ol] was tested, and the inhibition at 100 µM was 0 to 30%.
Clc1ccc(/C=C/CNC23CC4CC(CC(C4)C2)C3)cc1 [Example 200a, N-((E)-3-(4-chlorophenyl)allyl)adamantan-1-amine] gave an inhibition at 100 µM of 0 to 30%.
Compound c1coc(-c2ncc(CNC34CC5CC(CC(C5)C3)C4)cn2)c1 [Example 62a, N-((2-(furan-2-yl)pyrimidin-5-yl)methyl)adamantan-1-amine] has an inhibition at 100 µM of 0 to 30%.
Compound Cc1nc(-c2ccc(CNC34CC5CC(CC(C5)C3)C4)s2)cs1 [Example 156a, N-((5-(2-methylthiazol-4-yl)thiophen-2-yl)methyl)adamantan-1-amine] has an inhibition at 100 µM of 0 to 30%.
For c1ccc(C2=NOC(CNC34CC5CC(CC(C5)C3)C4)C2)cc1 (stereo not shown) [Example 167a, N-((3-phenyl-4,5-dihydroisoxazol-5-yl)methyl)adamantan-1-amine], the inhibition at 100 µM was 0 to 30%.
Work on c1cc(C2CC2)sc1CNC12CC3CC(CC(C3)C1)C2 [Example 108a, N-((5-cyclopropylthiophen-2-yl)methyl)adamantan-1-amine] yielded an inhibition at 100 µM of 0 to 30%.
Oc1cccc2ccc(CNC34CC5CC(CC(C5)C3)C4)nc12 [Example 65a, 2-((adamantan-1-ylamino)methyl)quinolin-8-ol] was tested, and the inhibition at 100 µM was 31 to 95%.
O=c1ccc2cc(CNC34CC5CC(CC(C5)C3)C4)ccc2o1 [Example 42a, 6-((adamantan-1-ylamino)methyl)-2H-chromen-2-one] showed an inhibition at 100 µM of 0 to 30%.
c1cc2cn[nH]c2cc1CNC12CC3CC(CC(C3)C1)C2 [Example 43a, N-((1H-indazol-6-yl)methyl)adamantan-1-amine] gave an inhibition at 100 µM of 31 to 95%.
In the case of COc1ccc2[nH]c(CNC34CC5CC(CC(C5)C3)C4)cc2c1 [Example 182a], the inhibition at 100 µM is reported as 0 to 30%.
In the case of c1ccc(-c2noc(CNC34CC5CC(CC(C5)C3)C4)n2)cc1 [Example 123a, N-((3-phenyl-1,2,4-oxadiazol-5-yl)methyl)adamantan-1-amine], the inhibition at 100 µM is reported as 0 to 30%.
In the case of Oc1cc(-c2ccoc2)ccc1CNC12CC3CC(CC(C3)C1)C2 [Example 46a], the inhibition at 100 µM is reported as 0 to 30%.

Same assay, conditions: Table 1; 100 uM; Xenopus oocytes, pH 5.5, -20 mV; read-out: S31 OOcyte Inhibition at 100 uM (%)
For CC(C)(C)CC(C)(C)NCc1ccc(O)cc1O [Example 112, 4-[(1,1,3,3-Tetramethyl-butylamino)-methyl]-benzene-1,3-diol], the inhibition at 100 µM was 31 to 95%.
With COc1ccccc1CNC12CC3CC(CC(C3)C1)C2 [Example 29, Adamantan-1-yl-(2-methoxy-benzyl)-amine] the inhibition at 100 µM was 0 to 30%.
Compound OCC(Cc1cnc[nH]1)NCC12CC3CC(CC(C3)C1)C2 (stereo not shown) [Example 2, 2-[(adamantan-1-ylmethyl)-amino]-3-(3H-imidazol-4-yl)-propan-1-ol] has an inhibition at 100 µM of 0 to 30%.
c1csc(-c2ccc(CNC34CC5CC(CC(C5)C3)C4)s2)c1 [Example 78, N-([2,2′-Bithiophen]-5-ylmethyl)adamantan-1-amine] gave an inhibition at 100 µM of 0 to 30%.
Work on c1ccc2nc(CNC34CC5CC(CC(C5)C3)C4)ccc2c1 [Example 98, Adamantan-1-yl-quinolin-2-ylmethyl-amine] yielded an inhibition at 100 µM of 31 to 95%.
In the case of CS(=O)(=O)c1ccc(CNC23CC4CC(CC(C4)C2)C3)cc1 [Example 25, Adamantan-1-yl-(4-methanesulfonyl-benzyl)-amine], the inhibition at 100 µM is reported as 31 to 95%.
CC(NC1C2CC3CC(C2)CC1C3)c1ccc(O)cc1O (stereo not shown) [Example 102, 4-[1-(Adamantan-2-ylamino)-ethyl]-benzene-1,3-diol] was tested, and the inhibition at 100 µM was 31 to 95%.
With CC(C)(C)OC(=O)Nc1ccc(CNC23CC4CC(CC(C4)C2)C3)cc1 [Example 12, [4-(Adamantan-1-ylaminomethyl)-phenyl]carbamic acid tert-butyl ester] the inhibition at 100 µM was 0 to 30%.
Work on Oc1cccc(CNC23CC4CC(CC(C4)C2)C3)c1 [Example 31, 3-(Adamantan-1-ylaminomethyl)-phenol] yielded an inhibition at 100 µM of 31 to 95%.
With NC(=O)COc1ccc(CNC23CC4CC(CC(C4)C2)C3)cc1 [Example 39, 2-(4-((Adamantan-1-ylamino)methyl)phenoxy)acetamide] the inhibition at 100 µM was 0 to 30%.
With c1cc2cn[nH]c2cc1CNC12CC3CC(CC(C3)C1)C2 [Example 95, Adamantan-1-yl-(1H-indazol-6-ylmethyl)-amine] the inhibition at 100 µM was 31 to 95%.
Work on C[S+]([O-])c1ccc(CNC23CC4CC(CC(C4)C2)C3)cc1 (stereo not shown) [Example 24, Adamantan-1-yl-(4-methanesulfinyl-benzyl)-amine] yielded an inhibition at 100 µM of 0 to 30%.
With CSc1ccc(CNC2C3CC4CC(C3)CC2C4)cc1 (stereo not shown) [Example 103, Adamantan-2-yl-(4-methylsulfanyl-benzyl)-amine] the inhibition at 100 µM was 0 to 30%.
Compound Nc1ncc(CNC23CC4CC(CC(C4)C2)C3)cn1 [Example 75, 5-(Adamantan-1-ylaminomethyl)-pyrimidin-2-ylamine] has an inhibition at 100 µM of 31 to 95%.

Same assay, conditions: Table 3; 100 uM; Xenopus oocytes, pH 5.5, -20 mV; read-out: S31 OOcyte Inhibition at 100 uM (%)
For COc1ccc2nc(CNC34CC5CC(CC(C5)C3)C4)[nH]c2c1 [Example 79b, Adamantan-1-yl-(6-methoxy-1H-benzoimidazol-2-ylmethyl)-amine], the inhibition at 100 µM was 0 to 30%.
In the case of CC(C)Cc1nc(CNC23CC4CC(CC(C4)C2)C3)no1 [Example 22b, N-((5-isobutyl-1,2,4-oxadiazol-3-yl)methyl)adamantan-1-amine], the inhibition at 100 µM is reported as 0 to 30%.
With CCCSc1ncc(CNC23CC4CC(CC(C4)C2)C3)cn1 [Example 62b, N-((2-propylthiopyrimidin-5-yl)methyl)adamantan-1-amine] the inhibition at 100 µM was 0 to 30%.
C1CCC(c2nc(CNC34CC5CC(CC(C5)C3)C4)no2)CC1 [Example 24b] gave an inhibition at 100 µM of 31 to 95%.
With Clc1ccccc1-c1cc(CNC23CC4CC(CC(C4)C2)C3)no1 [Example 45b, N-((5-(2-chlorophenyl)isoxazol-3-yl)methyl)adamantan-1-amine] the inhibition at 100 µM was 0 to 30%.
With c1nc(C2CCCCC2)ncc1CNC12CC3CC(CC(C3)C1)C2 [Example 61b, N-((2-cyclohexylpyrimidin-5-yl)methyl)adamantan-1-amine] the inhibition at 100 µM was 0 to 30%.
Compound Oc1cc(F)ccc1CNC12CC3CC(CC(C3)C1)C2 [Example 6b] has an inhibition at 100 µM of 31 to 95%.
C[Si](C)(C)c1ccc(CNC23CC4CC(CC(C4)C2)C3)s1 [Example 75b, Adamantan-1-yl-(5-trimethylsilanyl-thiophen-2-ylmethyl)-amine] was tested, and the inhibition at 100 µM was 0 to 30%.
CC(C)c1cc(CNC23CC4CC(CC(O)(C4)C2)C3)no1 [Example 85b, (1s,3r,5R,7S)-3-(((5-isopropylisoxazol-3-yl)methyl)amino)adamantan-1-61] was tested, and the inhibition at 100 µM was 0 to 30%.
Work on CSc1ccccc1-c1cnc(CNC23CC4CC(CC(C4)C2)C3)s1 [Example 76b, Adamantan-1-yl-[5-(2-methylsulfanyl-phenyl)-thiazol-2-ylmethyl]-amine] yielded an inhibition at 100 µM of 0 to 30%.

Same assay, conditions: pH 5.5, read-out: S31 OOcyte Inhibition at 100 uM (%)
Oc1ccccc1CNC12CC3CC(CC(C3)C1)C2 [Example 28, 2-(Adamantan-1-ylaminomethyl)-phenol] gave an inhibition at 100 µM of 31 to 95%.
